Measurements reported in paper PMC4718634, “Murine GPRC6A Mediates Cellular Responses to L-Amino Acids, but Not Osteocalcin Variants” (PLoS ONE, 2016).
Like-named read-outs stand apart in the source and are kept apart here.

Experiments:
Unknown species GPRC6A = conditions: ref [11] (supplement list); cited from earlier work
Description: (§1) Supplement pone.0146846.s004.docx, table 1 | column: Functional assay

GPRC6A [1] = conditions: ref [6] (supplement list); cited from earlier work
Description: as §1

TC6 = conditions: endogenous; ref [11] (supplement list); cited from earlier work
Description: as §1

MC3T3-E1 = conditions: endogenous; ref cell of this line empty; cited from earlier work
Description: as §1

3T3-L1 adipocytes = conditions: endogenous; ref [16] (supplement list); cited from earlier work
Description: as §1

TM3 Leydig cells = conditions: endogenous; ref [12] (supplement list); cited from earlier work
Description: as §1

22RV1 = conditions: endogenous, cited from earlier work
Description: as §1

MA-10 Leyding cells = conditions: endogenous; ref [15] (supplement list); cited from earlier work
Description: as §1

GPRC6A [2] = test system: GPRC6A; set-up: method as in PMID 15576628; conditions: chimera with goldfish 5.24 receptor and full length GPRC6A; ref [1]; cited from earlier work
mGPRC6A (mouse GPRC6A) = target: T1, mGPRC6A (mouse GPRC6A) (Mus musculus, UniProt Q8K4Z6); experiment: Inositol phosphate (IP-One HTRF) accumulation, FlpIn-TREx-HEK293-mGPRC6A cells; type: cell-based; conditions: for EC50: 30 min, HTRF, HBSS pH 7.2, mean ± SEM of at least three independent experiments, read-out: pEC50, inositol phosphate accumulation (converted)
T1 sequence (Q8K4Z6 21-928): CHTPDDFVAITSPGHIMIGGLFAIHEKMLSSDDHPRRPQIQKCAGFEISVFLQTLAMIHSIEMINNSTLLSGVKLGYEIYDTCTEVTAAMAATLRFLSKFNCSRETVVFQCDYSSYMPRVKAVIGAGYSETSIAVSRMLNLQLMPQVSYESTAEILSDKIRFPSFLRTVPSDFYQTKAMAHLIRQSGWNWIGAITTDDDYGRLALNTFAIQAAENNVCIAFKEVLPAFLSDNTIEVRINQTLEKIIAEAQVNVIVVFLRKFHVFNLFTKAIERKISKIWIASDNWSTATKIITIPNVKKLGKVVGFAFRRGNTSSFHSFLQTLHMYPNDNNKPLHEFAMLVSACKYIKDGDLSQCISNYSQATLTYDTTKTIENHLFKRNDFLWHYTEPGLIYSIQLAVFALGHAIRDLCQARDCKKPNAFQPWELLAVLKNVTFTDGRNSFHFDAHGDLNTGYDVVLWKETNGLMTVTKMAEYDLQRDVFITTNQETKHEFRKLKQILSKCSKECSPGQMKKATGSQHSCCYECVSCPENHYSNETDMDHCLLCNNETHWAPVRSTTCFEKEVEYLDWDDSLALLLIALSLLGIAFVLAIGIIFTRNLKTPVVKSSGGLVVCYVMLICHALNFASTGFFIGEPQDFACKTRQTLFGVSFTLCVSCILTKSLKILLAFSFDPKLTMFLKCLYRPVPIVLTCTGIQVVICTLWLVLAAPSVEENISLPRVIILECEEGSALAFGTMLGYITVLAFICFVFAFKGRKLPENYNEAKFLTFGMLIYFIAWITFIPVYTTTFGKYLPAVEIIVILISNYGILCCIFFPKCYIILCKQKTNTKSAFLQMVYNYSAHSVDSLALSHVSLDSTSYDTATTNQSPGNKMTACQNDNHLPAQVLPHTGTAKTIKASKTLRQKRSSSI
Protocol: pcDNA 5/FRT/TO constructs were isogenically integrated into a FlpIn-TREx-HEK293 cell line (Life Technologies). FlpIn-TREx-HEK293-mGPRC6A and FlpIn-TREx-HEK293-hGPRC6A cells were then selected using 600 μg/ml hygromycin and 5 μg/ml blasticidin and grown in culture medium consisting of Dulbecco’s Modified Eagle Medium (DMEM), supplemented with 10% (v/v) foetal bovine serum (FBS) at 37°C in 5% CO2 and were sub-cultured in a 1:3 ratio every 3–4 days. Cells were cultured overnight in the presence of 1 μg/ml tetracycline to induce GPRC6A expression. […] 48 h after transfection, cells were selected using 3 μg/ml puromycin and grown as above.
Inositol phosphate (IPX) accumulation experiments were performed using the IP-One HTRF® assay kit (Cisbio, France). Briefly, 24h after transfection with G proteins (as above), 10^5 cells were seeded per well in PDL-coated, 96-well white plates and incubated overnight. Cells were then washed 2 x 2h at 37°C in HBSS buffer (pH 7.2) containing 20 mM HEPES, 3.5 mM NaHCO3, 1 mM CaCl2 and 0.1% (w/v) BSA. Test compounds were then prepared in the kit stimulation buffer containing 2 mM CaCl2; cells were then incubated with 70 μl of drugs for 30 min, after which 15 μl of both IP1-D2 and Ab-Cryp were added to the cells, followed by a 1 h incubation at RT. Plates were read using an Envision plate reader (Perkin Elmer), using an HTRF protocol. Results were calculated from the 665nm / 620nm HTRF ratio (Ratio = A665nm/A620nm x 10^4) and expressed as a percentage of the maximal response obtained.
Concentration-response data were analysed using a three or four parameter logistic function (Motulsky & Christopoulos, 2004) to generate estimates of agonist potency (LogEC50). Data for all HEK293 assays represent the mean ± SEM of at least three independent experiments (except cell impedance, n = 2). For GLP-1 release, the data represent mean ± SEM of three to five independent experiments (except for OCN, wash; n = 2). For insulin release assays, data represent the mean ± SEM of three independent experiments (except for islet studies; n = 2). Insulin release data were normalised to the response to vehicle in either low or high [glucose]. Statistical analysis for GLP-1 release data were performed by one-way ANOVA, followed by Sidak’s multiple comparisons test (treating wash / no wash datasets separately). Statistical analyses for insulin release data were performed by two-way ANOVA (with [glucose] and drug treatment as group variables), followed by Sidak’s multiple comparisons test. Where only high [glucose] groups were evaluated, statistical analysis was by one-way ANOVA followed by Sidak’s multiple comparisons test.

GLUTag cells = conditions: endogenous; ref [17] (supplement list); cited from earlier work
Description: as §1

Which pERK1/2 response (Unknown species GPRC6A) does the source give for “OCN: osteoblast-derived peptide, osteocalcin; variant not specified at the place (YLYQWLGAPVPYPDPLEPRREVCELNPDCDELADHIGFQEAYRRFYGPV; UniProt P02818 52-100, looked up)” here?
Its pERK1/2 response is “pERK1/2 - response to Ca^2+, L-Arg, OCN”.

And the SRE-reporter gene response (GPRC6A [1])?
The SRE-reporter gene response was “pERK1/2 – response to Ca^2+, Mg^2+, Gd^3+, Al^3+, NPS R568 SRE-reporter gene – response to CaCl2, SrCl2, MgCl2, GdCl3 and OCN”.

And the “pERK1/2, pPKD1 response” value (TC6)?
The value was “pERK1/2, pPKD1 – response to OCN, L-Arg”.

What about the SRE-reporter gene response (MC3T3-E1) of the same compound?
The SRE-reporter gene response was “SRE-reporter gene – response to OCN”.

What about the “Adiponectin, PPARγ expression response” value (3T3-L1 adipocytes) of the same compound?
The value was “cAMP – response to OCN pERK1/2 – response to OCN pCREB – response to OCN Adiponectin, PPARγ expression – response to OCN”.

What about the cAMP response (3T3-L1 adipocytes) of the same compound?
The cAMP response was “cAMP – response to OCN pERK1/2 – response to OCN pCREB – response to OCN Adiponectin, PPARγ expression – response to OCN”.

And the pCREB response (3T3-L1 adipocytes)?
Its pCREB response is “cAMP – response to OCN pERK1/2 – response to OCN pCREB – response to OCN Adiponectin, PPARγ expression – response to OCN”.

What about the pERK1/2 response (3T3-L1 adipocytes) of the same compound?
The pERK1/2 response was “cAMP – response to OCN pERK1/2 – response to OCN pCREB – response to OCN Adiponectin, PPARγ expression – response to OCN”.

What about the “Ca2+i response” value (TM3 Leydig cells) of the same compound?
Its value is “negative”.

And the cAMP response (TM3 Leydig cells)?
Its cAMP response is “response”.

And the pCREB response (TM3 Leydig cells)?
The pCREB response was “response”.

What about the pERK1/2 response (TM3 Leydig cells) of the same compound?
Its pERK1/2 response is “negative”.

And the “Chemotaxis (22RV1) response” value (22RV1; ref [9] (supplement list))?
The value was “pERK1/2 – response to Ca^2+, ZnCl2, OCN, Arginine, Testosterone-BSA Proliferation – response to Ca^2+, OCN PSA, Runx2 expression – response to OCN, Arg, R1881 Chemotaxis (22RV1) – response to Ca^2+, OCN”.

What about the Proliferation response (22RV1; ref [10] (supplement list)) of the same compound?
Its Proliferation response is “pERK1/2 – response to Testosterone-BSA, Proliferation – response to Ca^2+, OCN, Testosterone-BSA”.

And the “Ca^2+i response” value (MA-10 Leyding cells)?
The value was “response”.

What about the “Release of 25-OH-Vit D or Testosterone” value (MA-10 Leyding cells) of the same compound?
The value was “response”.

And the cAMP response (MA-10 Leyding cells)?
Its cAMP response is “no response”.

For `NCCC[C@H](N)C(=O)O` [L-ornithine], which “agonist response of GPRC6A” value (GPRC6A [2]) is on record?
Its value is “mediates responses to L-amino acids”.

What about the EC50 (mGPRC6A (mouse GPRC6A); co-expression of GαqG66D) of the same compound?
The EC50 was 100 µM.

What about the EC50 (mGPRC6A (mouse GPRC6A); co-expression of wild-type Gαq) of the same compound?
The EC50 was 1000 µM.

And the “potency of L-ornithine with GαqG66D compared to wild-type Gαq” value (mGPRC6A (mouse GPRC6A); inositol phosphate accumulation)?
The value was “ten-fold higher potency”.

And the GLP-1 secretion response (GLUTag cells)?
Its GLP-1 secretion response is “response”.
